What was measured:
Experiment in all cases: relative viability (nuclei count vs DMSO), 5 days (fraction); higher = more cells survive
PC-14 = test system: PC-14
Method in brief: (§1)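 Cells from lung cancer lines were seeded into 1536-well plates and, one day later, dosed by pin tool. Treatments were either a single drug or a fixed dose of an anchor drug with five library-drug doses (not always all listed) in √10 steps. After 5 days, nuclei were stained in a one-step fixation (final 0.05% Triton X-100, 1% formaldehyde, 1 ug/ml Hoechst) and counted on 4× images, and relative viability is the treated-to-vehicle nuclei ratio, as the median of duplicate plates.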

NCI-H1395 = test system: NCI-H1395
Method in brief: as §1

NCI-H1793 = test system: NCI-H1793
Method in brief: as §1

HCC-15 = test system: HCC-15
Method in brief: as §1

NCI-H1755 = test system: NCI-H1755
Method in brief: as §1

COR-L23 = test system: COR-L23
Method in brief: as §1

COR-L 105 = test system: COR-L 105
Method in brief: as §1

NCI-H1915 = test system: NCI-H1915
Method in brief: as §1

HCC-366 = test system: HCC-366
Method in brief: as §1

NCI-H1437 = test system: NCI-H1437
Method in brief: as §1

SK-MES-1 = test system: SK-MES-1
Method in brief: as §1

EMC-BAC-2 = test system: EMC-BAC-2
Method in brief: as §1

NCI-H2023 = test system: NCI-H2023
Method in brief: as §1

NCI-H2347 = test system: NCI-H2347
Method in brief: as §1

NCI-H23 = test system: NCI-H23
Method in brief: as §1

LC-2-ad = test system: LC-2-ad
Method in brief: as §1

NCI-H1792 = test system: NCI-H1792
Method in brief: as §1

NCI-H2009 = test system: NCI-H2009
Method in brief: as §1

201T = test system: 201T
Method in brief: as §1

Cc1cn(-c2cc(NC(=O)c3ccc(C)c(Nc4nccc(-c5cccnc5)n4)c3)cc(C(F)(F)F)c2)cn1 [Nilotinib] + CC1(C)CCC(c2ccc(Cl)cc2)=C(CN2CCN(c3ccc(C(=O)NS(=O)(=O)c4ccc(N[C@H](CCN5CCOCC5)CSc5ccccc5)c(S(=O)(=O)C(F)(F)F)c4)cc3)CC2)C1 [Navitoclax] (partner 0.5 µM)
relative viability (PC-14; first compound 0.003162 µM): 1.09
relative viability (PC-14; first compound 0.01 µM): 1.19
relative viability (PC-14; first compound 0.03162 µM): 0.882
relative viability (PC-14; first compound 0.1 µM): 1.07
relative viability (NCI-H1395; first compound 0.001 µM): 1.03
relative viability (NCI-H1395; first compound 0.003162 µM): 0.815
relative viability (NCI-H1395; first compound 0.01 µM): 1.1
relative viability (NCI-H1395; first compound 0.03162 µM): 1.11
relative viability (NCI-H1395; first compound 0.1 µM): 1.05
relative viability (NCI-H1793; first compound 0.003162 µM): 0.452
relative viability (NCI-H1793; first compound 0.01 µM): 0.587
relative viability (NCI-H1793; first compound 0.03162 µM): 0.385
relative viability (NCI-H1793; first compound 0.1 µM): 0.275
relative viability (HCC-15; first compound 0.001 µM): 0.631
relative viability (HCC-15; first compound 0.003162 µM): 0.824
relative viability (HCC-15; first compound 0.01 µM): 0.716
relative viability (HCC-15; first compound 0.03162 µM): 0.511
relative viability (HCC-15; first compound 0.1 µM): 0.57
relative viability (NCI-H1755; first compound 0.001 µM): 0.969
relative viability (NCI-H1755; first compound 0.003162 µM): 1.1
relative viability (NCI-H1755; first compound 0.01 µM): 1.08
relative viability (NCI-H1755; first compound 0.03162 µM): 0.83
relative viability (NCI-H1755; first compound 0.1 µM): 0.93
relative viability (COR-L23; first compound 0.001 µM): 0.835
relative viability (COR-L23; first compound 0.003162 µM): 1.17
relative viability (COR-L23; first compound 0.01 µM): 1.18
relative viability (COR-L23; first compound 0.03162 µM): 0.953
relative viability (COR-L23; first compound 0.1 µM): 0.864
relative viability (COR-L 105; first compound 0.001 µM): 0.709
relative viability (COR-L 105; first compound 0.01 µM): 0.696
relative viability (COR-L 105; first compound 0.03162 µM): 0.644
relative viability (COR-L 105; first compound 0.1 µM): 0.848
relative viability (NCI-H1915; first compound 0.001 µM): 0.764
relative viability (NCI-H1915; first compound 0.003162 µM): 0.813
relative viability (NCI-H1915; first compound 0.01 µM): 0.807
relative viability (NCI-H1915; first compound 0.03162 µM): 0.751
relative viability (NCI-H1915; first compound 0.1 µM): 0.781
relative viability (HCC-366; first compound 0.001 µM): 1.07
relative viability (HCC-366; first compound 0.01 µM): 1.62
relative viability (HCC-366; first compound 0.03162 µM): 0.696
relative viability (HCC-366; first compound 0.1 µM): 0.744
relative viability (NCI-H1437; first compound 0.001 µM): 1.02
relative viability (NCI-H1437; first compound 0.003162 µM): 1.34
relative viability (NCI-H1437; first compound 0.01 µM): 1.15
relative viability (NCI-H1437; first compound 0.03162 µM): 0.766
relative viability (NCI-H1437; first compound 0.1 µM): 0.925
relative viability (SK-MES-1; first compound 0.001 µM): 1.17
relative viability (SK-MES-1; first compound 0.003162 µM): 1.5
relative viability (SK-MES-1; first compound 0.01 µM): 1.61
relative viability (SK-MES-1; first compound 0.03162 µM): 1.1
relative viability (SK-MES-1; first compound 0.1 µM): 1.29
relative viability (EMC-BAC-2; first compound 0.001 µM): 0.919
relative viability (EMC-BAC-2; first compound 0.003162 µM): 1.45
relative viability (EMC-BAC-2; first compound 0.01 µM): 1.69
relative viability (EMC-BAC-2; first compound 0.03162 µM): 0.852
relative viability (EMC-BAC-2; first compound 0.1 µM): 1.23
relative viability (NCI-H2023; first compound 0.001 µM): 0.914
relative viability (NCI-H2023; first compound 0.003162 µM): 1.13
relative viability (NCI-H2023; first compound 0.01 µM): 1.32
relative viability (NCI-H2023; first compound 0.03162 µM): 1.02
relative viability (NCI-H2023; first compound 0.1 µM): 1.02
relative viability (NCI-H2347; first compound 0.001 µM): 0.81
relative viability (NCI-H2347; first compound 0.003162 µM): 0.959
relative viability (NCI-H2347; first compound 0.01 µM): 1.05
relative viability (NCI-H2347; first compound 0.03162 µM): 0.662
relative viability (NCI-H2347; first compound 0.1 µM): 0.695
relative viability (NCI-H23; first compound 0.001 µM): 0.78
relative viability (NCI-H23; first compound 0.003162 µM): 0.839
relative viability (NCI-H23; first compound 0.01 µM): 1.09
relative viability (NCI-H23; first compound 0.03162 µM): 0.605
relative viability (NCI-H23; first compound 0.1 µM): 0.721
relative viability (LC-2-ad; first compound 0.001 µM): 0.376
relative viability (LC-2-ad; first compound 0.003162 µM): 0.396
relative viability (LC-2-ad; first compound 0.01 µM): 0.467
relative viability (LC-2-ad; first compound 0.03162 µM): 0.339
relative viability (LC-2-ad; first compound 0.1 µM): 0.365
relative viability (NCI-H1792; first compound 0.001 µM): 0.523
relative viability (NCI-H1792; first compound 0.01 µM): 0.907
relative viability (NCI-H1792; first compound 0.1 µM): 0.794
relative viability (NCI-H2009; first compound 0.001 µM): 1.09
relative viability (NCI-H2009; first compound 0.003162 µM): 1.19
relative viability (NCI-H2009; first compound 0.01 µM): 1.21
relative viability (NCI-H2009; first compound 0.03162 µM): 1.19
relative viability (NCI-H2009; first compound 0.1 µM): 1.23
relative viability (201T; first compound 0.001 µM): 1.22
relative viability (201T; first compound 0.003162 µM): 1.29
relative viability (201T; first compound 0.01 µM): 1.25
relative viability (201T; first compound 0.1 µM): 1.21

CN1CCN(CCOc2cc(OC3CCOCC3)c3c(Nc4c(Cl)ccc5c4OCO5)ncnc3c2)CC1 [Saracatinib] + CC1(C)CCC(c2ccc(Cl)cc2)=C(CN2CCN(c3ccc(C(=O)NS(=O)(=O)c4ccc(N[C@H](CCN5CCOCC5)CSc5ccccc5)c(S(=O)(=O)C(F)(F)F)c4)cc3)CC2)C1 [Navitoclax] (partner 0.5 µM)
relative viability (PC-14; first compound 0.02 µM): 1.01
relative viability (PC-14; first compound 0.2 µM): 1.01
relative viability (PC-14; first compound 0.6325 µM): 0.417
relative viability (PC-14; first compound 2 µM): 0.198
relative viability (NCI-H1395; first compound 0.02 µM): 1.37
relative viability (NCI-H1395; first compound 0.2 µM): 0.902
relative viability (NCI-H1395; first compound 0.6325 µM): 1.09
relative viability (NCI-H1395; first compound 2 µM): 1.08
relative viability (NCI-H1793; first compound 0.02 µM): 0.456
relative viability (NCI-H1793; first compound 0.2 µM): 0.402
relative viability (NCI-H1793; first compound 0.6325 µM): 0.401
relative viability (NCI-H1793; first compound 2 µM): 0.201
relative viability (HCC-15; first compound 0.02 µM): 0.655
relative viability (HCC-15; first compound 0.2 µM): 0.545
relative viability (HCC-15; first compound 0.6325 µM): 0.65
relative viability (HCC-15; first compound 2 µM): 0.558
relative viability (NCI-H1755; first compound 0.02 µM): 0.981
relative viability (NCI-H1755; first compound 0.2 µM): 0.681
relative viability (NCI-H1755; first compound 0.6325 µM): 0.874
relative viability (NCI-H1755; first compound 2 µM): 0.588
relative viability (COR-L23; first compound 0.02 µM): 1.1
relative viability (COR-L23; first compound 0.2 µM): 0.966
relative viability (COR-L23; first compound 0.6325 µM): 0.923
relative viability (COR-L23; first compound 2 µM): 0.933
relative viability (COR-L 105; first compound 0.02 µM): 0.795
relative viability (COR-L 105; first compound 0.2 µM): 0.764
relative viability (COR-L 105; first compound 0.6325 µM): 0.578
relative viability (COR-L 105; first compound 2 µM): 0.474
relative viability (NCI-H1915; first compound 0.02 µM): 0.813
relative viability (NCI-H1915; first compound 0.2 µM): 0.456
relative viability (NCI-H1915; first compound 0.6325 µM): 0.8
relative viability (NCI-H1915; first compound 2 µM): 0.757
relative viability (HCC-366; first compound 0.02 µM): 1.03
relative viability (HCC-366; first compound 0.6325 µM): 1.08
relative viability (HCC-366; first compound 2 µM): 0.7
relative viability (NCI-H1437; first compound 0.02 µM): 1.11
relative viability (NCI-H1437; first compound 0.2 µM): 1.12
relative viability (NCI-H1437; first compound 0.6325 µM): 1.11
relative viability (NCI-H1437; first compound 2 µM): 1.03
relative viability (SK-MES-1; first compound 0.02 µM): 1.24
relative viability (SK-MES-1; first compound 0.2 µM): 1.16
relative viability (SK-MES-1; first compound 0.6325 µM): 1.21
relative viability (SK-MES-1; first compound 2 µM): 0.727
relative viability (EMC-BAC-2; first compound 0.02 µM): 1.15
relative viability (EMC-BAC-2; first compound 0.2 µM): 1.16
relative viability (EMC-BAC-2; first compound 0.6325 µM): 1.15
relative viability (EMC-BAC-2; first compound 2 µM): 0.993
relative viability (NCI-H2023; first compound 0.02 µM): 1.04
relative viability (NCI-H2023; first compound 0.2 µM): 0.808
relative viability (NCI-H2023; first compound 0.6325 µM): 1.02
relative viability (NCI-H2023; first compound 2 µM): 0.987
relative viability (NCI-H2347; first compound 0.02 µM): 0.725
relative viability (NCI-H2347; first compound 0.2 µM): 0.686
relative viability (NCI-H2347; first compound 0.6325 µM): 0.862
relative viability (NCI-H2347; first compound 2 µM): 0.599
relative viability (NCI-H23; first compound 0.02 µM): 0.815
relative viability (NCI-H23; first compound 0.6325 µM): 0.847
relative viability (NCI-H23; first compound 2 µM): 0.52
relative viability (LC-2-ad; first compound 0.02 µM): 0.453
relative viability (LC-2-ad; first compound 0.6325 µM): 0.448
relative viability (LC-2-ad; first compound 2 µM): 0.348
relative viability (NCI-H1792; first compound 0.02 µM): 0.635
relative viability (NCI-H1792; first compound 0.2 µM): 0.489
relative viability (NCI-H1792; first compound 0.6325 µM): 0.723
relative viability (NCI-H1792; first compound 2 µM): 0.583
relative viability (NCI-H2009; first compound 0.02 µM): 1.15
relative viability (NCI-H2009; first compound 0.2 µM): 1.07
relative viability (NCI-H2009; first compound 0.6325 µM): 1.15
relative viability (NCI-H2009; first compound 2 µM): 1.16
relative viability (201T; first compound 0.02 µM): 1.29
relative viability (201T; first compound 0.2 µM): 1.16
relative viability (201T; first compound 0.6325 µM): 1.09
relative viability (201T; first compound 2 µM): 1.1

Reference: the supplement of paper PMC10307832
